Measurements: patent US11298367B2, “Prodrugs of substituted triazole derivatives and uses thereof” (Bayer Aktiengesellschaft, priority 2017, dated 2022)

How the values were obtained:
human V2 receptor = target: T1, human V2 receptor (Homo sapiens, UniProt P30518); test: Cellular in vitro assay for vasopressin receptor activity (V2, CRE-luciferase); assay type: cell-based; details: CHO cell line with human V2 receptor, [Arg8]-vasopressin at EC50; values are for the prodrug as such; read-out: IC50 hV2
T1 construct: expressed in transfected cells; host or cells: CHO K1 cells expressing firefly luciferase under a CRE-responsive promoter
Procedure: (§1) B-1. Cellular In Vitro Assay for Determining Vasopressin Receptor Activity
(§2) The identification of agonists and antagonists of the V1a and V2 vasopressin receptors from humans, rats and dogs as well as the quantification of the activity of the compounds of the invention is carried out using recombinant cell lines. These cell lines originally derive from a hamster's ovary epithelial cell (Chinese Hamster Ovary, CHO K1, ATCC: American Type Culture Collection, Manassas, Va. 20108, USA). The test cell lines constitutively express the human, rat or dog V1a or V2 receptors. In case of the Gaq-coupled V1a receptors, cells are also stably transfected with a modified form of the calcium-sensitive photoproteins aequorin (human and rat V1a) or obelin (dog V1a), which, after reconstitution with the cofactor coelenterazine, emit light when there are increases in free calcium concentrations [Rizzuto R, Simpson A W, Brini M, Pozzan T, Nature 358, 325-327 (1992); Illarionov B A, Bondar V S, Illarionova V A, Vysotski E S, Gene 153 (2), 273-274 (1995)]. The resulting vasopressin receptor cells react to stimulation of the recombinantly expressed Via receptors by intracellular release of calcium ions, which can be quantified by the resulting photoprotein luminescence. The Gs-coupled V2 receptors are stably transfected into cell lines expressing the gene for firefly luciferase under control of a CRE-responsible promoter. Activation of V2 receptors induces the activation of the CRE-responsive promoter via cAMP increase, thereby inducing the expression of firefly luciferase. The light emitted by photoproteins of V1a cell lines as well as the light emitted by firefly luciferase of V2 cell lines corresponds to the activation or inhibition of the respective vasopressin receptor. The bioluminescence of the cell lines is detected using a suitable luminometer [Milligan G, Marshall F, Rees S, Trends in Pharmacological Sciences 17, 235-237 (1996)].
Vasopressin V2 Receptor Cell Lines:
On the day before the assay, the cells are plated out in culture medium (DMEM/F12, 2% FCS, 2 mM glutamine, 10 mM HEPES) in 384-well microtiter plates and kept in a cell incubator (96% humidity, 5% v/v CO2, 37C). On the day of the assay, test compounds in various concentrations and the agonist [Arg^8]-vasopressin at EC50 concentration are added together to the wells, and plates are incubated for 3 hours in a cell incubator. Upon addition of the cell lysis reagent Triton™ and the substrate luciferin, luminescence of firefly luciferase is measured in a luminometer.
(§3) Table 1A below lists individual IC50 values for the compounds of the invention (including racemic mixtures as well as separated enantiomers) that were obtained from cell lines transfected with the human V1a or V2 receptor. This means these IC50 values are the values for the prodrug and not for the underlying respective drug as the prodrug is mainly stable under the assay conditions.

Solubility = assay type: physicochemical; details: 24 h room temperature, max. 500 μg/ml; for solubility at 24 h: thermodynamic from solid
Procedure: For each substance 0.5-0.6 mg are weighed exactly. In each case, sufficient medium is added to the sample in such a way that a concentration of c=500 μg/ml is obtained. This sample solution is shaken for 24 h at room temperature and 1400 rpm.
A further sample weight of 0.5-0.6 mg is required for the DMSO calibration solution. This sample is filled with DMSO to a concentration of c=600 μg/ml. Two calibration solutions are prepared from this stock solution. In a 2 ml HPLC vial, 1000 μl of DMSO are initially introduced and 34.4 μl of the stock solution are pipetted (c=20 µg/ml). […] of this solution (c=20 μg/ml) are placed in a further 2 ml HPLC vial containing 500 μl of DMSO (c=2.5 μg/ml).
After shaking the test solutions, 230 μl of the supernatant are transferred into a centrifuge tube and centrifuged at 42 000 rpm (223 000 g) for 30 min. 180 μl of the supernatant are then taken and each diluted with DMSO (1:5 sample 1; 1:100 sample 2), and transferred to HPLC vials. The two calibration solutions and the dilute sample solutions are analyzed by HPLC. Quantification is performed over the corresponding peak areas.
Distilled water; trifluoroacetic acid (Merck; 1.08262.0100); acetonitrile (HPLC grade); DMSO (Merck; 8.02912.2500).
Fluka buffer, Order No. 33643 (11.76 g citric acid, 2.57 g sodium chloride and 2.72 g sodium hydroxide).
Fluka buffer, Order No. 33646 (3.52 g potassium dihydrogenphosphate, 7.26 g sodium hydrogen phosphate).
Solution of 6.18 g sodium chloride and 3.96 g sodium dihydrogen phosphate in 1 L distilled water, adjust with 1M aqueous sodium hydroxide solution to pH 7.4.
0.6057 g TRIS was dissolved in 95 ml water, adjust to pH 8.5 with aqueous hydrochloric acid, fill with water until 100 ml volume is reached.

human V1a receptor = target: T2, human V1a receptor (Homo sapiens, UniProt P37288); test: Cellular in vitro assay for vasopressin receptor activity (V1a, aequorin luminescence); assay type: cell-based; details: for IC50: CHO cell line with human V1a receptor, [Arg8]-vasopressin at EC50, values are for the prodrug as such, read-out: IC50 hV1a; for ratio IC50 hV2/hV1a: selectivity ratio hV2/hV1a
T2 construct: expressed in transfected cells; host or cells: CHO K1 (Chinese hamster ovary), also stably transfected with a modified aequorin
Procedure: as §1, §2
Vasopressin V1a Receptor Cell Lines:
On the day before the assay, the cells are plated out in culture medium (DMEM/F12, 2% FCS, 2 mM glutamine, 10 mM HEPES, 5 μg/ml coelenterazine) in 384-well microtiter plates and kept in a cell incubator (96% humidity, 5% v/v CO2, 37C). On the day of the assay, test compounds in various concentrations are placed for 10 minutes in the wells of the microtiter plate before the agonist [Arg^8]-vasopressin at EC50 concentration is added. The resulting light signal is measured immediately in a luminometer.
as §3

[1] = PBS buffer pH 7.4, pH 7.4, aqueous buffer, pH = 7.4 PBS buffer
[2] = Tris buffer pH 8.5, pH 8.5, aqueous buffer, pH = 8.5 Tris buffer
[3] = citrate buffer pH 4, pH 4, aqueous buffer, pH = 4 citrate buffer

T2 sequence (P37288 whole entry): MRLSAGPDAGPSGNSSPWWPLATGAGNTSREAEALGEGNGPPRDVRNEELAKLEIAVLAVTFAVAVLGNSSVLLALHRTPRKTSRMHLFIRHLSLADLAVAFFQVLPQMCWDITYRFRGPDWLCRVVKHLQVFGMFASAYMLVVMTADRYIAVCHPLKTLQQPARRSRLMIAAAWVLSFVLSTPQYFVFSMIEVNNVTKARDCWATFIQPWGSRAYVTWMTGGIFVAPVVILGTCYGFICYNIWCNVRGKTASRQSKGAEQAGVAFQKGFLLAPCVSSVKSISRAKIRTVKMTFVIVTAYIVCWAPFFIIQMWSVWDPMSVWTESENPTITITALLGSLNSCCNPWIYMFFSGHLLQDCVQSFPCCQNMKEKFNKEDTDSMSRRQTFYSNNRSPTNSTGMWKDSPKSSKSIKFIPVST
T1 sequence (P30518 whole entry): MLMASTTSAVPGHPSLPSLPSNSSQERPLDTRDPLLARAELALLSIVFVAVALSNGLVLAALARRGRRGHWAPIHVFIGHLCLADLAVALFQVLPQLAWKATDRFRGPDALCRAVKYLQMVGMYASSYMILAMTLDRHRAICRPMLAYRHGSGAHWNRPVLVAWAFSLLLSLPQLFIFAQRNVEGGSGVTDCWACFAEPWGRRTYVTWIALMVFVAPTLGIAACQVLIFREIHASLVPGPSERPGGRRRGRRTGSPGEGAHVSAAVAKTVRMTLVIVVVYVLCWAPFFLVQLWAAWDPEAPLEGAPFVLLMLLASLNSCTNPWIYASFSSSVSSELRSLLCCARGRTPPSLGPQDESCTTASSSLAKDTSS

NC(=O)c1nc(Cn2nc(-c3ccc(Cl)cc3)n(C[C@H](OP(=O)([O-])O)C(F)(F)F)c2=O)nn1-c1ncccc1C(F)(F)F.[Na+] [Example 4, Sodium (2S)-3-[1-({5-carbamoyl-1-[3-(trifluoromethyl)pyridin-2-yl]-1H-1,2,4-triazol-3-yl}-methyl)-3-(4-chlorophenyl)-5-oxo-1,5-dihydro-4H-1,2,4-triazol-4-yl]-1,1,1-trifluoropropan-2-yl Hydrogen Phosphate]
IC50 (human V2 receptor): 150 nM
solubility at 24 h (Solubility; [1]): > 500 µg/mL
solubility at 24 h (Solubility; [2]): > 500 µg/mL
solubility at 24 h (Solubility; [3]): > 500 µg/mL
IC50 (human V1a receptor): 11.1 nM
ratio IC50 hV2/hV1a (human V1a receptor; Phosphate): 13.5

NC(=O)c1nc(Cn2nc(-c3ccc(Cl)cc3)n(C[C@H](OP(=O)([O-])[O-])C(F)(F)F)c2=O)nn1-c1ncccc1C(F)(F)F.[Mg+2] [Example 9, Magnesium (2S)-3-[1-({5-carbamoyl-1-[3-(trifluoromethyl)pyridin-2-yl]-1H-1,2,4-triazol-3-yl}-methyl)-3-(4-chlorophenyl)-5-oxo-1,5-dihydro-4H-1,2,4-triazol-4-yl]-1,1,1-trifluoropropan-2-yl Phosphate]
IC50 (human V2 receptor): 225 nM
solubility at 24 h (Solubility; [1]): > 500 µg/mL
solubility at 24 h (Solubility; [2]): 447 µg/mL
solubility at 24 h (Solubility; [3]): > 500 µg/mL
IC50 (human V1a receptor): 14 nM
ratio IC50 hV2/hV1a (human V1a receptor): 16.1

NC(=O)c1nc(Cn2nc(-c3ccc(Cl)cc3)n(C[C@H](OP(=O)([O-])O)C(F)(F)F)c2=O)nn1-c1ncccc1Cl.[Na+] [Example 20, Sodium (2S)-3-[1-{[5-carbamoyl-1-(3-chloropyridin-2-yl)-1H-1,2,4-triazol-3-yl]methyl}-3-(4-chlorophenyl)-5-oxo-1,5-dihydro-4H-1,2,4-triazol-4-yl]-1,1,1-trifluoropropan-2-yl Hydrogen Phosphate]
IC50 (human V2 receptor): 85.5 nM
solubility at 24 h (Solubility; [1]): > 500 µg/mL
solubility at 24 h (Solubility; [2]): > 500 µg/mL
solubility at 24 h (Solubility; [3]): > 500 µg/mL
IC50 (human V1a receptor): 39.5 nM
ratio IC50 hV2/hV1a (human V1a receptor; Phosphate): 2.2

NC(=O)c1nc(Cn2nc(-c3ccc(Cl)cc3)n(C[C@H](OP(=O)([O-])O)C(F)(F)F)c2=O)nn1-c1ncccc1C(F)(F)F.[Li+] [Example 7, Lithium (2S)-3-[1-({5-carbamoyl-1-[3-(trifluoromethyl)pyridin-2-yl]-1H-1,2,4-triazol-3-yl}-methyl)-3-(4-chlorophenyl)-5-oxo-1,5-dihydro-4H-1,2,4-triazol-4-yl]-1,1,1-trifluoropropan-2-yl Hydrogen Phosphate]
IC50 (human V2 receptor): 160 nM
Solubility (Solubility; pH = 4 citrate buffer): >500 µg/mL
Solubility (Solubility; pH = 7.4 PBS buffer, Phosphate): >500 µg/mL
Solubility (Solubility; pH = 8.5 Tris buffer, Phosphate): >500 µg/mL
IC50 (human V1a receptor): 8.85 nM
ratio IC50 hV2/hV1a (human V1a receptor; Phosphate): 18.1

NC(=O)c1nc(Cn2nc(-c3ccc(Cl)cc3)n(C[C@H](OP(=O)([O-])O)C(F)(F)F)c2=O)nn1-c1ncccc1C(F)(F)F.[Li+] [Example 6, Lithium (2S)-3-[1-({5-carbamoyl-1-[3-(trifluoromethyl)pyridin-2-yl]-1H-1,2,4-triazol-3-yl}-methyl)-3-(4-chlorophenyl)-5-oxo-1,5-dihydro-4H-1,2,4-triazol-4-yl]-1,1,1-trifluoropropan-2-yl Hydrogen Phosphate]
IC50 (human V2 receptor): 220 nM
solubility at 24 h (Solubility; [1]): 464 µg/mL
solubility at 24 h (Solubility; [2]): 464 µg/mL
solubility at 24 h (Solubility; [3]): > 500 µg/mL
IC50 (human V1a receptor): 15.5 nM
ratio IC50 hV2/hV1a (human V1a receptor; Phosphate): 14.2

NC(=O)c1nc(Cn2nc(-c3ccc(Cl)cc3)n(C[C@H](OP(=O)([O-])[O-])C(F)(F)F)c2=O)nn1-c1ncccc1Cl.[Mg+2] [Example 22, Magnesium (2S)-3-[1-{[5-carbamoyl-1-(3-chloropyridin-2-yl)-1H-1,2,4-triazol-3-yl]methyl}-3-(4-chlorophenyl)-5-oxo-1,5-dihydro-4H-1,2,4-triazol-4-yl]-1,1,1-trifluoropropan-2-yl Phosphate]
IC50 (human V2 receptor): 90 nM
solubility at 24 h (Solubility; [1]): > 500 µg/mL
solubility at 24 h (Solubility; [2]): > 500 µg/mL
solubility at 24 h (Solubility; [3]): > 500 µg/mL
IC50 (human V1a receptor): 45 nM
ratio IC50 hV2/hV1a (human V1a receptor): 2.0
